Measurements: ChEMBL document CHEMBL5104211, “Design and synthesis of bile acid derivatives and their activity against colon cancer” (RSC Med Chem, 2022)
Calls of active or inactive are those of the source. No cut-off for these calls is given here.

Columns and labels:
SK-HEP1 = experiment: Anticancer activity against human SK-HEP1 cells assessed as inhibition of cell proliferation by MTT assay; format: functional, cell-based
HCT-116 [1] = experiment: Anticancer activity against human HCT-116 cells assessed as inhibition of cell proliferation at 20 micromol/L incubated for 24 hrs by MTT assay; format: functional; settings: HCT-116, 24 h, dose 20 µmol/L
HCT-116 [2] = experiment: Induction of mitochondrial membrane potential loss in human HCT-116 cells and measured after 48 hrs by TRME staining based flow cytometric analysis (reference value: 97.52%); format: functional
HCT-116 [3] = experiment: […] activity in human HCT-116 cells assessed as downregulation of Bcl-2 level at 30 micromol/L incubated for 48 hrs by Western blot analysis; format: functional, cell-based; settings: dose 30.0 µmol/L
HCT-116 [4] = experiment: Anticancer activity against human HCT-116 cells assessed as inhibition of cell proliferation at 20 to 40 micromol/L incubated for 24 to 72 hrs by MTT assay; format: functional, cell-based; settings: dose 20-40 µmol/L, time 24-72 hrs, TDE = time-dependent effect
HCT-116 [5] = experiment: Induction of apoptosis in human HCT-116 cells assessed as increase in number of apoptotic cells at 30 micromol/L incubated for 48 hrs by DAPI staining based fluorescence microscopy; format: functional, cell-based; settings: dose 30.0 µmol/L
HCT-116 [6] = experiment: Induction of apoptosis in human HCT-116 cells assessed as retraction of the cytoplasm at 30 micromol/L incubated for 48 hrs by Giemsa staining based fluorescence microscopy; format: functional, cell-based; settings: dose 30.0 µmol/L
HCT-116 [7] = experiment: Induction of ROS generation in human HCT-116 cells assessed as increase in intracellular ROS level incubated for 48 hrs by DCFH-DA staining based flow cytometric analysis (Rvb=73.65%); format: functional
HT-29 = experiment: Anticancer activity against human HT-29 cells assessed as inhibition of cell proliferation by MTT assay; format: functional, cell-based
HCT-116 [8] = experiment: Inhibition of cell invasion in human HCT-116 cells at 20 micromol/L and measured after 24 hrs by crystal violet staining based transwell assay; format: functional; settings: HCT-116, 24 h, dose 20 µmol/L
A549 = experiment: Anticancer activity against human A549 cells assessed as inhibition of cell proliferation by MTT assay; format: functional, cell-based
HCT-116 [9] = experiment: Induction of apoptosis in human HCT-116 cells assessed as necrotic cells at 30 micromol/L incubated for 48 hrs by annexin V-FITC and propidium iodide staining based flow cytometry analysis (reference value: 0.88%); format: functional; settings: dose 30 µmol/L, at 30 µM
HCT-116 [10] = experiment: Inhibition of cell migration in human HCT-116 cells at 20 micromol/L and measured after 24 hrs by crystal violet staining based transwell assay; format: functional; settings: HCT-116, 24 h, dose 20 µmol/L
LoVo = experiment: Anticancer activity against human LoVo cells assessed as inhibition of cell proliferation by MTT assay; format: functional, cell-based
HCT-116 [11] = experiment: Anticancer activity against human HCT-116 cells assessed as inhibition of cell proliferation at 40 micromol/L incubated for 24 hrs by MTT assay; format: functional; settings: HCT-116, 24 h, dose 40 µmol/L
HCT-116 [12] = experiment: Anticancer activity against human HCT-116 cells assessed as decrease in number of colonies at 25 micromol/L and measured after 48 hrs by crystal violet dye based colony formation assay; format: functional, cell-based; settings: dose 25.0 µmol/L
HCT-116 [13] = experiment: Induction of apoptosis in human HCT-116 cells assessed as contraction of cell volume at 30 micromol/L incubated for 48 hrs by Giemsa staining based fluorescence microscopy; format: functional; settings: dose 30.0 µmol/L
HCT-116 [14] = experiment: Induction of apoptosis in human HCT-116 cells assessed as early apoptotic cells at 30 micromol/L incubated for 48 hrs by annexin V-FITC and propidium iodide staining based flow cytometry analysis (reference value: 2.69%); format: functional; settings: dose 30 µmol/L, at 30 µM
HCT-116 [15] = experiment: Anticancer activity against human HCT-116 cells assessed as inhibition of cell proliferation at 5 to 50 micromol/L incubated for 24 hrs by MTT assay; format: functional, cell-based; settings: dose 5-50 µmol/L, DDE = dose-dependent effect
HCT-116 [16] = experiment: Induction of cell cycle arrest in human HCT-116 cells assessed as accumulation G2/M phase at 25 micromol/L and measured after 48 hrs by propidium iodide staining based flow cytometry analysis (Rvb= 11%); format: functional; settings: dose 25 µmol/L, at 25 µM
HCT-116 [17] = experiment: Anticancer activity against human HCT-116 cells assessed as decrease in size of colonies at 25 micromol/L and measured after 48 hrs by crystal violet dye based colony formation assay; format: functional, cell-based; settings: dose 25.0 µmol/L
HCT-116 [18] = experiment: Induction of apoptosis in human HCT-116 cells assessed as apoptotic body formation at 30 micromol/L incubated for 48 hrs by Giemsa staining based fluorescence microscopy; format: functional, cell-based; settings: dose 30.0 µmol/L
RKO = experiment: Anticancer activity against human RKO cells assessed as inhibition of cell proliferation by MTT assay; format: functional, cell-based
RAW264.7 [19] = experiment: Anti-inflammatory activity against mouse RAW264.7 cells assessed as inhibition of LPS-induced NO production incubated for 24 hrs in presence of LPS by Griess reagent-based assay; format: functional, cell-based; settings: RAW264.7, 24 h
RAW264.7 [20] = experiment: Anti-inflammatory activity against mouse RAW264.7 cells assessed as downregulation of LPS-induced TNF-alpha level at 10 to 25 micromol/L incubated for 24 hrs in presence of LPS by ELISA; format: functional, cell-based; settings: dose 10-25 µmol/L
HCT-116 [21] = experiment: Induction of apoptosis in human HCT-116 cells assessed as unclear cell rupture edges at 30 micromol/L incubated for 48 hrs by Giemsa staining based fluorescence microscopy; format: functional; settings: dose 30.0 µmol/L
HCT-116 [22] = experiment: Anticancer activity in human HCT-116 cells assessed as downregulation of phosphorylated STAT3 level at 30 micromol/L incubated for 48 hrs by Western blot analysis; format: functional, cell-based; settings: dose 30.0 µmol/L
HCT-116 [23] = experiment: Induction of apoptosis in human HCT-116 cells assessed as late apoptotic cells at 30 micromol/L incubated for 48 hrs by annexin V-FITC and propidium iodide staining based flow cytometry analysis (reference value: 7.13%); format: functional; settings: dose 30 µmol/L, at 30 µM
HCT-116 [24] = experiment: Anticancer activity against human HCT-116 cells assessed as inhibition of cell proliferation by MTT assay; format: functional, cell-based
MGC-803 = experiment: Anticancer activity against human MGC-803 cells assessed as inhibition of cell proliferation by MTT assay; format: functional, cell-based
HCT-116 [25] = experiment: Induction of apoptosis in human HCT-116 cells assessed as viable cells at 30 micromol/L incubated for 48 hrs by annexin V-FITC and propidium iodide staining based flow cytometry analysis (reference value: 89.29%); format: functional; settings: HCT-116, 48 h, dose 30 µmol/L, read-out: Activity
[26] = Cytotoxicity against human WI-38 cells assessed as inhibition of cell proliferation by MTT assay; format: toxicity, cell-based
SW480 = experiment: Anticancer activity against human SW480 cells assessed as inhibition of cell proliferation by MTT assay; format: functional, cell-based
HCT-116 [27] = experiment: Induction of apoptosis in human HCT-116 cells assessed as retraction of the nucleus at 30 micromol/L incubated for 48 hrs by Giemsa staining based fluorescence microscopy; format: functional, cell-based; settings: dose 30.0 µmol/L
Huh-7 = experiment: Anticancer activity against human Huh-7 cells assessed as inhibition of cell proliferation by MTT assay; format: functional, cell-based
RAW264.7 [28] = experiment: Anti-inflammatory activity against mouse RAW264.7 cells assessed as inhibition of LPS-induced NO production at 10 micromol/L incubated for 24 hrs in presence of LPS by Griess reagent-based assay; format: functional; settings: RAW264.7, 24 h, dose 10 µmol/L
RAW264.7 [29] = experiment: Anti-inflammatory activity against mouse RAW264.7 cells assessed as inhibition of LPS-induced NO production at 25 micromol/L incubated for 24 hrs in presence of LPS by Griess reagent-based assay; format: functional; settings: RAW264.7, 24 h, dose 25 µmol/L

| Structure (SMILES) | IC50 (SK-HEP1) [µM] | inhibition at 20 µM (HCT-116 [1]) [%] | Activity (HCT-116 [2]) [%] | Activity (HCT-116 [3]) | inhibition (HCT-116 [4]) | Activity (HCT-116 [5]) | Activity (HCT-116 [6]) | Activity (HCT-116 [7]) [%] | IC50 (HT-29) [µM] | inhibition at 20 µM (HCT-116 [8]) [%] | IC50 (A549) [µM] | Activity (HCT-116 [9]) [%] | IC50 (LoVo) [µM] | IC50 (RKO) [µM] | IC50 (RAW264.7 [19]) [µM] | IC50 (HCT-116 [24]) [µM] | IC50 (MGC-803) [µM] | IC50 [26] [µM] | IC50 (SW480) [µM] | IC50 (Huh-7) [µM] | further results |
| --- | --- | --- | --- | --- | --- | --- | --- | --- | --- | --- | --- | --- | --- | --- | --- | --- | --- | --- | --- | --- | --- |
| COc1cc(COC(=O)CC[C@@H](C)[C@H]2CC[C@H]3[C@@H]4[C@H](O)C[C@@H]5C[C@H](O)CC[C@]5(C)[C@H]4C[C@H](O)[C@]23C)cc(OC)c1 | 50.7 | < 40 | 70.35 | Active | Tde | Active | Active | 93.87 | 27.9 | 80 | 34.6 | 1.65 | 23.1 | 31.7 | 20.6 | 23.7 | 26.4 | > 500 | 28 | 126 | inhibition at 20 µM (HCT-116 [10]): 80%; inhibition at 40 µM (HCT-116 [11]): 90%; Activity (HCT-116 [12]): Active; Activity (HCT-116 [13]): Active; Activity (HCT-116 [14]): 2.01%; inhibition (HCT-116 [15]): Dde; Activity (HCT-116 [16]): 89.77%; Activity (HCT-116 [17]): Active; Activity (HCT-116 [18]): Active; Activity (RAW264.7 [20]): Active; Activity (HCT-116 [21]): Active; Activity (HCT-116 [22]): Active; Activity (HCT-116 [23]): 76.88%; viability at 30 µM (HCT-116 [25]): 19.5%; Activity (HCT-116 [27]): Active |
| Cc1ccc(COC(=O)CC[C@@H](C)[C@H]2CC[C@H]3[C@@H]4[C@H](O)C[C@@H]5C[C@H](O)CC[C@]5(C)[C@H]4C[C@H](O)[C@]23C)cc1 | 60.2 | < 40 | 51.59 | Active | Tde | Active | Active | 95.87 | 22.7 | 80 | 40.5 | 0.81 | 18.7 | 27.6 | 20.6 | 21.3 | 21.9 | > 500 | 23.6 | 51.6 | inhibition at 20 µM (HCT-116 [10]): 80%; inhibition at 40 µM (HCT-116 [11]): 90%; Activity (HCT-116 [12]): Active; Activity (HCT-116 [13]): Active; Activity (HCT-116 [14]): 1.3%; inhibition (HCT-116 [15]): Dde; Activity (HCT-116 [16]): 90.66%; Activity (HCT-116 [17]): Active; Activity (HCT-116 [18]): Active; Activity (RAW264.7 [20]): Active; Activity (HCT-116 [21]): Active; Activity (HCT-116 [22]): Active; Activity (HCT-116 [23]): 72.61%; viability at 30 µM (HCT-116 [25]): 25.3%; Activity (HCT-116 [27]): Active |
| C[C@H](CCC(=O)OCc1ccc([N+](=O)[O-])cc1)[C@H]1CC[C@H]2[C@@H]3[C@H](O)C[C@@H]4C[C@H](O)CC[C@]4(C)[C@H]3C[C@H](O)[C@]12C | 71.9 | < 40 | 58.32 | Active | Tde | Active | Active | 97.06 | 34.8 | 80 | 45.7 | 0.96 | 24.4 | 29.5 | 20.6 | 22 | 21.8 | > 500 | 31.8 | 63 | inhibition at 20 µM (HCT-116 [10]): 80%; inhibition at 40 µM (HCT-116 [11]): 90%; Activity (HCT-116 [12]): Active; Activity (HCT-116 [13]): Active; Activity (HCT-116 [14]): 0.93%; inhibition (HCT-116 [15]): Dde; Activity (HCT-116 [16]): 93.18%; Activity (HCT-116 [17]): Active; Activity (HCT-116 [18]): Active; Activity (RAW264.7 [20]): Active; Activity (HCT-116 [21]): Active; Activity (HCT-116 [22]): Active; Activity (HCT-116 [23]): 84.27%; viability at 30 µM (HCT-116 [25]): 13.8%; Activity (HCT-116 [27]): Active |
| C[C@H](CCC(=O)OCc1cc(O)cc(O)c1)[C@H]1CC[C@H]2[C@@H]3[C@H](O)C[C@@H]4C[C@H](O)CC[C@]4(C)[C@H]3CC[C@]12C | 156 | – | – | – | – | – | – | – | 40.9 | – | 127 | – | 56.7 | 76.9 | 16.3 | 64.5 | 81.8 | > 200 | 69.4 | 116 | inhibition at 10 µM (RAW264.7 [28]): 35.5%; Activity (RAW264.7 [20]; DDE = dose-dependent effect): Dde; inhibition at 25 µM (RAW264.7 [29]): 73.2% |
